The source of these data is US7973078B2, “Sulfonamide compound or salt thereof” (Astellas Pharma Inc., priority 2006, dated 2011).

Structures are written as SMILES.

Test [1] has as its target T1, rat EP1 receptor (Rattus norvegicus, UniProt P70597).
T1 sequence (P70597 1-405): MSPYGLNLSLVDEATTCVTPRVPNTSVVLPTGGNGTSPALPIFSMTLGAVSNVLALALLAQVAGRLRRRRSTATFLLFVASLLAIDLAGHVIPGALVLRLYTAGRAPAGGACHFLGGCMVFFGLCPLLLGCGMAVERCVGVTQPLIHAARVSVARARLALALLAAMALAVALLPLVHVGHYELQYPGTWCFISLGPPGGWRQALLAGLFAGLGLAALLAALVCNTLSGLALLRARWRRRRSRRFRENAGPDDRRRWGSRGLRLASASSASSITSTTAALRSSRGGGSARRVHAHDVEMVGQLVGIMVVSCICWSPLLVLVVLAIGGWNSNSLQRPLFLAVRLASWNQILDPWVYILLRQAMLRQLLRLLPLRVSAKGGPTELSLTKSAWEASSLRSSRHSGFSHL
Kind of test: Receptor antagonistic activity using cells expressing an EP1 receptor (PGE2-induced intracellular Ca change, FLIPR). It counts as cell-based. The settings on record: HEK293 cells stably expressing rat EP1 receptors; 100 nM PGE2; Ca concentration in cells. On the procedure:
1. Experiment to Measure a Receptor Antagonistic Activity Using Cells Expressing an EP1 Receptor
HEK293 cells (American Type Culture Collection) that stably expressed rat EP1 receptors were dispensed onto a 96-well poly-D-lysine-coated plate (Product Name: Biocoat, PDL96W black/clear, Nippon Becton Dickinson) to a 2×10^4 cells/well at the day before the experiment, and incubated overnight at 37° C. under 5% carbon dioxide (CO2) in a culture medium containing 10% fetal bovine serum (FBS) (Product Name: DMEM, Invitrogen Corporation). The culture medium was replaced by a loading buffer (a washing solution containing a 4 μM fluorescent indicator (Product Name: Fluo3-AM, Tong Ren Tang Technologies Co. Ltd.):a Hank's balanced salt solution)(HBSS), 20 mM 2-[4-(2-hydroxyethyl)-1-piperazinyl]ethanesulfonic acid (HEPES)-sodium hydroxide (NaOH), 2.5 mM Probenecid, 0.1% bovine serum albumin (BSA)), and left to stand at room temperature for 3 hours, and the cells were washed using a plate washer in which a washing solution had been set up (Product Name: ELx405, BIO-TEK instrument Corporation). The compound that had been preliminarily dissolved and diluted in a washing solution was added thereto, and set up in a system for measuring a calcium (Ca) concentration in a cell (Product Name: FLIPR, Molecular Devices Corporation). After 5 minutes, PGE2 was added to a final concentration of 100 nM, and the change in Ca concentrations in cells was measured. A difference between a maximum value and a minimum value in Ca concentrations in cells was determined, and kept as measurement data. With a response upon addition of 100 nM PGE2 being set at […], and a response upon addition of a buffer being set at 100%, the concentration causing 50% inhibition was determined as an IC50 value.
In the table, Pre represents Preparative Example No. as described later, and Ex represent Example No. as described later.

Test [2] deals with T1, rat EP1 receptor. Kind of test: Receptor binding test using EP1 receptor-expressing cells (3H-PGE2 binding to membrane sample). On the set-up: expressed in transfected cells; host or cells: HEK293EBNA cells, pCEP4 vector, transient (2 days); crude membrane sample. The settings on record: membrane of HEK293EBNA cells expressing rat EP1; 2.5 nM 3H-PGE2; Ki=IC50/(1+([C]/Kd)). An excerpt:
(2) Receptor Binding Test Using EP1 Receptor-Expressing Cells
A signal peptide (MKTIIALSYIFCLVFA: SEQ ID NO: 1) and a FLAG sequence (DYKDDDDK: SEQ ID NO: 2) were introduced at the N-terminus of a rat EP1 receptor, followed by subcloning into an expression vector (Product Name: pCEP4, Invitrogen Corporation). An HEK293EBNA cell (American Type Culture Collection) was transfected with the rat EP1 expression vector using a transfection regent (Product Name: Fugene-6, Roche-Diagnostics, K.K), and then cultured for 2 days in a medium containing 10% FBS (Product Name: DMEM, Invitrogen Corporation) at 37° C. under 5% CO2. After culturing, the cells were recovered, treated with a cell lysate (20 mM Tris(hydroxymethyl)aminomethane (Tris)buffer pH7.5, 5 mM ethylene diaminetetraacetic acid(EDTA)), and ultracentrifuged (23,000 revolution, 25 minutes×2) for a rough preparation of a membrane sample.
A reaction solution containing the prepared membrane sample (15 μg) and ^3H-PGE2 (150 μl, composition: 10 mM 2-(N-morpholino)ethanesulfonic acid (MES)/potassium hydroxide(KOH) pH6.0, 1 mM EDTA, 10 mM magnesium chloride (MgCl2), 0.02% 3-[(3-Cholamidopropyl)dimethylammonio] propanesulfonate (CHAPS)) was incubated at room temperature for 1 hour. The reaction was terminated with an ice-cooled buffer, and suction-filtered under reduced pressure to trap the bound ^3H-PGE2 to a glass fiber filter (Product Name: UNIFILTER-96, GF/B, PerkinElmer Japan Co., Ltd.), so as to measure the radioactivity of the binding with a microplate scintillation counter (Product Name: TopCount, Packard) using Microscinti (Product Name: Microscinti 20, PerkElmer Japan Co., Ltd.).
The dissociation constant (Kd) and the maximum binding (Bmax) were determined using Scatchard plot (Annals of the New York Academy of Science, US, volume 51, page 660, 1949). Nonspecific bindings were determined as bindings in the presence of an excessive amount (2.5 μM) of label-free PGE2. The assessment of inhibitory effect on ^3H-PGE2 binding by the compound was carried out by adding 2.5 nM ^3H-PGE2 and the compound.
The inhibition constant Ki(nM) for each compound was obtained using the following formula: Ki=IC50/(1+([C]/Kd))
wherein [C] represents the concentration of ^3H-PGE2 employed in a reaction system.

The term IC50 denotes the concentration that inhibits the measured activity by half. A high value points to weaker potency. As usually defined, the Ki is a dissociation constant, usually derived from enzyme kinetics or from competition with a known ligand. Read a low Ki as a stronger hold on the target. As for `COc1ccc(CNC(=O)CN(c2cccc(Cl)c2C)S(=O)(=O)c2ccc(C)cc2)cc1` [Pre1, N^2-(3-chloro-2-methylphenyl)-N-(4-methoxybenzyl)-N^2-[(4-methylphenyl)sulfonyl] glycinamide], the IC50 on rat EP1 receptor [1] came out at 16 nM. On rat EP1 receptor [2], the Ki amounted to 0.68 nM. Taken in the same sequence, the figures for `CCc1c(Cl)cccc1N(CC(=O)NCc1cccc(C(=O)O)c1)S(=O)(=O)c1ccc(C)cc1` [Ex40] were 0.72 nM and 0.33 nM.

Regarding `Cc1ccc(S(=O)(=O)N(CC(=O)NCc2ccc(C(=O)NS(C)(=O)=O)cc2)c2cccc(Cl)c2C)cc1` [Ex20], it took 1.4 nM to reach half-maximal inhibition on rat EP1 receptor [1] (IC50). This molecule also yielded a Ki on rat EP1 receptor [2] of 0.74 nM. Taken in the same sequence, the figures for `Cc1ccc(S(=O)(=O)N(CC(=O)NCc2cccc(OCC(=O)O)c2)c2cccc(Cl)c2C)cc1` [Ex16] were 2.4 nM and 1 nM. At rat EP1 receptor [1], `Cc1ccc(S(=O)(=O)N(CC(=O)NCc2cccc(C(=O)O)c2)c2cccc(Cl)c2C)cc1` [Ex7] showed an IC50 of 1.6 nM. The molecule also had a Ki on rat EP1 receptor [2] of 0.57 nM.

For the molecule `COc1c(Cl)cccc1N(CC(=O)NCc1cccc(C(=O)O)c1)S(=O)(=O)c1ccc(C)cc1` [Ex38], half-maximal inhibition on rat EP1 receptor [1] (IC50) required 1.5 nM. Besides, at rat EP1 receptor [2], the inhibition constant Ki stood at 0.48 nM. Regarding `Cc1ccc(S(=O)(=O)N(CC(=O)NCc2ccncn2)c2cccc(Cl)c2C)cc1` [Pre15], inhibition on rat EP1 receptor [1] was half-maximal at 12 nM (IC50). On the same count and under the same terms, for `Cc1ccc(S(=O)(=O)N(CC(=O)NCc2ccc(-n3cccn3)cc2)c2cccc(Cl)c2C)cc1` [Ex26] the value was 2.5 nM.

On rat EP1 receptor [1], `CCc1c(Cl)cccc1N(CC(=O)NCc1cccc(/C=C/C(=O)O)c1)S(=O)(=O)c1ccc(C)cc1` [Ex74] gave an IC50 of 1 nM. The Ki on rat EP1 receptor [2] was 0.35 nM. On rat EP1 receptor [1], `COC(=O)c1ccc(CNC(=O)CN(c2cccc(Cl)c2C)S(=O)(=O)c2ccc(C)cc2)cc1` [Ex24] had an IC50 of 1 nM.
